Measured values published in patent publication US5275708A, “Cetyltrimethylammonium bromide gel electrophoresis” (Thomas Jefferson University, priority 1992, dated 1994).

How the values were obtained:
[1] = tested on: enzyme activities of various proteins; test: Enzyme activities of detergent-treated samples after heating; assay type: biochemical; conditions: detergent treated samples heated to 100° C. in the presence of β-mercaptoethanol
Text: Native protein activity was retained after solubilization in CTAB. Enzyme activities of various proteins in CTAB with their activities when solubilized in SDS, or Tx-100 were compared. […] The relative effect of detergent solubilization on native activity varied from protein to protein and, therefore, must be determined empirically.

Ca2+-ATPase = Ca2+-ATPase activity in detergent-solubilized chorioallantoic membrane microsomes; assay type: biochemical; conditions: 0.5% detergent; day-17 chick CAM microsomes; relative to Tx-100 (100%)
Method: (§1) FIG. 4 is a graphical depiction of the effect of detergent solubilization on enzyme activities. Enzyme activities were determined in the presence of 0.5% Tx-100, SDS, or CTAB as described in the Examples. The activities were expressed relative to that in Tx-100 solubilized samples (100%). […] Alkaline phosphatase and horseradish peroxidase were purchased from Sigma. Ca^2+ -ATPase activity was measured in microsomes prepared from day-17 chick chorioallantoic membrane, Oakley et al., Anal. Biochem., 105:361-363 (1980). NAD dependent isocitrate dehydrogenase (ICD) and lactate dehydrogenase (LDH) activities were measured in detergent extracts of JEG-3 human choriocarcinoma cells
(§2) Ca^2+ -ATPase activity was assayed by the method of Tuan and Knowles, J. Biol. Chem., 259:2754-2763 (1984), without further modification. Alkaline phosphatase, lactate dehydrogenase, and isocitrate dehydrogenase activities were measured using protocols supplied with their respective diagnostic kits.

[2] = tested on: lactate dehydrogenase (LDH); test: Lactate dehydrogenase activity in detergent extracts; assay type: biochemical, human; conditions: 0.5% detergent; JEG-3 cell extracts; relative to Tx-100 (100%)
Method: as §1, §2

[3] = tested on: NAD dependent isocitrate dehydrogenase (ICD); test: NAD dependent isocitrate dehydrogenase activity in detergent extracts; assay type: biochemical, human; conditions: 0.5% detergent; JEG-3 cell extracts; compared to SDS; relative to Tx-100 (100%)
Method: as §1, §2

horseradish peroxidase = test: Horseradish peroxidase activity after detergent solubilization; assay type: biochemical; conditions: 0.5% detergent; compared to SDS; relative to Tx-100 (100%)
Method: Spectrophotometric Assays. Peroxidase activity was assayed at room temperature using a solution of 0.5 mg/ml diaminobenzidine in 10 mM sodium phosphate buffered 0.9% saline (pH 7.2), containing 0.1% hydrogen peroxide. Reactions were allowed to proceed for 5 minutes, and then were stopped by the addition of 10 mM sodium sulfide to 100 μM. Absorbance at 480 nm was used to determine the degree of product formation.

Alkaline phosphatase = Alkaline phosphatase activity after detergent solubilization; assay type: biochemical; conditions: 0.5% detergent; compared to SDS; relative to Tx-100 (100%)
Method: as §1, §2

[4] = α-NH2 group; cited from earlier work

Row | SMILES | Enzyme activity after heating [1] | Enzyme activity (Ca2+-ATPase) in detergent (Ca2+-ATPase) | Enzyme activity (LDH) in detergent [2] | Enzyme activity (ICD) in detergent [3] | Enzyme activity (HRP) in detergent (horseradish peroxidase) | Enzyme activity (AP) in detergent (Alkaline phosphatase) | pKa [4]
1 | CCCCCCCCCCCCOS(=O)(=O)[O-].[Na+] [SDS, sodium dodecylsulfate] | lost all activity |  |  |  |  |  | 
2 | CCCCCCCCCCCCCCCC[N+](C)(C)C.[Br-] [CTAB, Cetyltrimethylammonium bromide] | lost all activity | significantly affected | lack of activity | relatively high levels of enzyme activity | relatively high levels of enzyme activity | relatively high levels of enzyme activity | 
3 | NCCCC[C@H](N)C(=O)O [lysine] |  |  |  |  |  |  | ≈ 9.06
